Assays:
[1] = target: T1, WT HIV-1 RT RNase H activity (Human immunodeficiency virus type 1 group M subtype B, UniProt P04585); experiment: biochemical; assay type: biochemical; conditions: for RNase H Activity IC50: WT RT, mean ± SD, at least three independent experiments
T1 construct: made in house
Method: (§1) WT (wild-type) RT, and RTs harboring the NNRTI-resistant mutations K101E, K103N, Y181C, Y188C, G190A and P236L, were overexpressed and purified to homogeneity as described previously. The RT concentration was determined spectrophotometrically at 280 nm using an absorbance coefficient of 260,450 M^−1·cm^−1. The 7-hydroxy tropolone derivative 19,616 (2,7-dihydroxy 2,4,6-cyclo-heptatrien-1-one) was purchased from Molecular Diversity Preservation International (Basel, Switzerland). […] The benzisothiazolone derivatives were procured from MolPort (New York, NY, USA) or Enamine (Kyiv, Ukraine). The DNA and RNA oligonucleotides were synthesized and purified by Integrated DNA Technologies (Coralville, IA, USA). All other reagents were of the highest quality available and were used without further purification.
Compounds were screened at a final concentration of 10 µM in 1× assay buffer (50 mM Tris pH 8.0, 60 mM KCl, 5 mM MgCl2) containing 1% DMSO in 384-well Greiner black polystyrene plates (VWR catalog # 82051-272). A total of 10 µL of intermediate diluted compounds (100 µM in 10% DMSO) was transferred into assay plates using the Evolution-3 (EP3) (Perkin Elmer, Waltham, MA, USA) automated liquid handling platform outfitted with a 384-well transfer head. A total of 40 µL of RT-RNase H enzyme (60 ng per well) were then dispensed into each well using the Titertek MAP-C2 reagent dispenser platform (Huntsville, AL, USA). A total of 50 µL of the RNA/DNA duplex (140 nM) substrate was then dispensed into each well using the MAP-C2 dispenser, and the assay plates were then incubated at room temperature for 20 min. After 20 min, the assay was terminated by the addition of 10 µL of 1 M EDTA pH 9.0 stop buffer. Relative fluorescent unit (RFU) signals, Excitation 490 nm and Emission 528 nm (Cutoff 515 nm), were captured on the Spectromax M5e plate reader (Molecular Devices, Menlo, CA, USA). […] The template also calculated the plate signal-to-background (S:B) ratios (mean maximum signal/mean minimum signal) and Z’-factor coefficient HTS performance statistics.
(§2) The following RNA/DNA T/P substrate was used in the present study: an 18-nucleotide RNA template (RNA-18T: 5′-[…]-3′) was annealed to an 18-nucleotide primer (DNA-18T: 5′-[…]-3′), as described previously. Fluorescein and IowaBlack FQTM were covalently attached to the 3′- and 5′-ter-mini of the RNA and DNA oligonucleotides, respectively.
(§3) The FRET-based RNase H cleavage assays were carried out as described previously. Fluorescence was measured with a SpectraMax M2 microplate spectrofluorometer (Molecular Devices, San Jose, CA, USA) using an excitation wavelength of 490 nm and an emission wavelength of 528 nm. Data were analyzed using SoftMax Pro software, version 4.7.1 (Molecular Devices, San Jose, CA, USA).
We implemented a rapid, robust and inexpensive fluorescence-based 384-well assay for the measurement of RT RNase H activity, previously described by Parniak et al.. The substrate comprises an 18-nucleotide 3′-fluorescein-labeled heteropolymeric RNA annealed to a complementary 5′-dabcyl-modified DNA. RT cleaves the RNA strand of this substrate close to the 3′ end, promoting the dissociation of the fluorescein-labeled RNA fragment and generating a detectable fluorescent signal. We used this HTS assay to screen 65,239 compounds at a final concentration of 10 µM.

[2] = target: T2, WT HIV-1 RT DNA-dependent DNA polymerase activity (Human immunodeficiency virus type 1 group M subtype B, UniProt P04585); experiment: biochemical; assay type: biochemical; conditions: for Polymerase Activity IC50 (DNA Polymerase): WT RT, mean ± SD, at least three independent experiments
T2 construct: made in house
Method: as §1
DDDP assays were also performed using a QuantiFluor ONE based spectrophotometric assay to detect double-stranded DNA synthesized by recombinant HIV-1 RT [14]. The reaction contained 40 nM of a template/primer comprising a 200 nt DNA template (5′-[…] […]-[…]-[…] […] […]-3′) annealed to an 18-nucleotide DNA primer (5′-[…]-3′), and a mix of 50 mM Tris-HCl pH 7.8, 50 mM NaCl, 10 mM MgCl2 and 50 µM dNTP. The reactions were stopped after 45 min by adding the detection reagent containing 1 × Quant-Fluor One (Promega) and 12.5 mM ethylenediaminetet-raacetic acid; the samples were transferred to a 96-well black plate, and fluorescence was measured at excitation/emission (490/535 nm).

[3] = target: T3, G190A HIV-1 RT RNase H activity (Human immunodeficiency virus type 1 group M subtype B, UniProt P04585, G777A); experiment: FRET-based RT RNase H cleavage assay, G190A RT; assay type: biochemical
T3 construct: made in house
Method: (§4) WT (wild-type) RT, and RTs harboring the NNRTI-resistant mutations K101E, K103N, Y181C, Y188C, G190A and P236L, were overexpressed and purified to homogeneity as described previously. The RT concentration was determined spectrophotometrically at 280 nm using an absorbance coefficient of 260,450 M^−1·cm^−1. The 7-hydroxy tropolone derivative 19,616 (2,7-dihydroxy 2,4,6-cyclo-heptatrien-1-one) was purchased from Molecular Diversity Preservation International (Basel, Switzerland). Nevirapine was purchased from Selleckchem (Houston, TX, USA). The benzisothiazolone derivatives were procured from MolPort (New York, NY, USA) or Enamine (Kyiv, Ukraine). The DNA and RNA oligonucleotides were synthesized and purified by Integrated DNA Technologies (Coralville, IA, USA). All other reagents were of the highest quality available and were used without further purification.
as §2, §3

[4] = system: G190A HIV-1 RT RNase H activity; experiment: FRET-based RT RNase H cleavage assay, G190A RT; assay type: biochemical; conditions: G190A RT; fold resistance IC50 mutant/IC50 WT
Method: as §4, §2, §3

[5] = system: Y188C HIV-1 RT RNase H activity; experiment: FRET-based RT RNase H cleavage assay, Y188C RT; assay type: biochemical; conditions: Y188C RT; fold resistance IC50 mutant/IC50 WT
Method: as §4, §2, §3

[6] = target: T4, Y188C HIV-1 RT RNase H activity (Human immunodeficiency virus type 1 group M subtype B, UniProt P04585, Y775C); experiment: FRET-based RT RNase H cleavage assay, Y188C RT; assay type: biochemical
T4 construct: made in house
Method: as §4, §2, §3

[7] = system: Y181C HIV-1 RT RNase H activity; experiment: FRET-based RT RNase H cleavage assay, Y181C RT; assay type: biochemical; conditions: Y181C RT; fold resistance IC50 mutant/IC50 WT
Method: as §4, §2, §3

[8] = target: T5, Y181C HIV-1 RT RNase H activity (Human immunodeficiency virus type 1 group M subtype B, UniProt P04585, Y768C); experiment: FRET-based RT RNase H cleavage assay, Y181C RT; assay type: biochemical
T5 construct: made in house
Method: as §4, §2, §3

[9] = target: T6, K103N HIV-1 RT RNase H activity (Human immunodeficiency virus type 1 group M subtype B, UniProt P04585, K690N); experiment: FRET-based RT RNase H cleavage assay, K103N RT; assay type: biochemical
T6 construct: made in house
Method: as §4, §2, §3

[10] = system: K103N HIV-1 RT RNase H activity; experiment: FRET-based RT RNase H cleavage assay, K103N RT; assay type: biochemical; conditions: K103N RT; fold resistance IC50 mutant/IC50 WT
Method: as §4, §2, §3

[11] = system: K101E HIV-1 RT RNase H activity; experiment: FRET-based RT RNase H cleavage assay, K101E RT; assay type: biochemical; conditions: K101E RT; fold resistance IC50 mutant/IC50 WT
Method: as §4, §2, §3

[12] = target: T7, K101E HIV-1 RT RNase H activity (Human immunodeficiency virus type 1 group M subtype B, UniProt P04585, K688E); experiment: FRET-based RT RNase H cleavage assay, K101E RT; assay type: biochemical
T7 construct: made in house
Method: as §4, §2, §3

HIV-1 = experiment: Antiviral activity (HIV-1 replication) in TZM-bl cells; assay type: cell-based; conditions: Human immunodeficiency virus 1, mean ± SD
Method: The genes for Y181C, Y181I, Y181V and Y181F were cloned into HIV-1LAI. NNRTI susceptibility was determined in TZM-bl cells, as described previously.
(§5) Next, we re-purchased 10 hit compounds with IC50 values < 1.0 µM for the inhibition of RT RNase H activity that were commercially available in sufficient quantities for further analysis. We assessed their antiviral activity and cytotoxicity in TZM-bl cells, as described previously.

[13] = Cytotoxicity in TZM-bl cells; assay type: cell-based; conditions: human, TZM-bl cell death
Method: as §5

[14] = system: P236L HIV-1 RT RNase H activity; experiment: FRET-based RT RNase H cleavage assay, P236L RT; assay type: biochemical; conditions: P236L RT; fold resistance IC50 mutant/IC50 WT
Method: as §4, §2, §3

[15] = target: T8, P236L HIV-1 RT RNase H activity (Human immunodeficiency virus type 1 group M subtype B, UniProt P04585, P823L); experiment: FRET-based RT RNase H cleavage assay, P236L RT; assay type: biochemical
T8 construct: made in house
Method: as §4, §2, §3

Compound: CC1CN(S(=O)(=O)c2cccc(-c3cn4ccccc4n3)c2)CC(C)O1 (stereo not drawn) [Compound 8]
- IC50 [1]: > 81 µM
- IC50 [2]: > 81 µM

Compound: O=c1c2ccccc2sn1-c1ccc(S(=O)(=O)N2CCCCC2)cc1 [Compound 6]
- IC50 [1]: 39.2 ± 21 µM
- RNase H Activity IC50 [1]: modest activity
- IC50 [2]: 12.2 ± 3.7 µM
- Polymerase Activity IC50 (DNA Polymerase) [2]: modest activity

Compound: Cn1sc2ccccc2c1=O [Compound 3, 2-methylbenzo[d]isothiazol-3(2H)-one]
- IC50 [3]: 2.4 ± 0.4 µM
- Inhibition of RT RNase H Activity Fold-R [4]: 1.0
- Inhibition of RT RNase H Activity Fold-R [5]: 2.3
- IC50 [6]: 5.7 ± 1.2 µM
- Inhibition of RT RNase H Activity Fold-R [7]: 0.8
- IC50 [8]: 2.1 ± 0.3 µM
- IC50 [9]: 2.4 ± 0.2 µM
- Inhibition of RT RNase H Activity Fold-R [10]: 1.0
- Inhibition of RT RNase H Activity Fold-R [11]: 0.9
- IC50 [12]: 2.2 ± 0.3 µM
- EC50 (HIV-1): 28.4 ± 12.3 µM
- IC50 [1]: 2.5 ± 0.2 µM
- CC50 [13]: ≥ 100 µM
- Inhibition of RT RNase H Activity Fold-R [14]: 0.9
- IC50 [15]: 2.2 ± 0.2 µM
- IC50 [2]: > 81 µM
- Polymerase Activity IC50 (DNA Polymerase) [2]: completely inactive

Compound: O=c1c(O)ccccc1O [Compound 19619, 2,7-dihydroxy 2,4,6-cyclo-heptatrien-1-one, reference compound]
- IC50 [3]: 7.1 ± 1.9 µM
- Inhibition of RT RNase H Activity Fold-R [4]: 0.8
- Inhibition of RT RNase H Activity Fold-R [5]: 0.6
- IC50 [6]: 5.5 ± 2.4 µM
- Inhibition of RT RNase H Activity Fold-R [7]: 1.4
- IC50 [8]: 12.1 ± 1.6 µM
- IC50 [9]: 9.4 ± 0.9 µM
- Inhibition of RT RNase H Activity Fold-R [10]: 1.1
- Inhibition of RT RNase H Activity Fold-R [11]: 0.9
- IC50 [12]: 8.1 ± 1.7 µM
- IC50 [1]: 8.7 ± 3 µM
- Inhibition of RT RNase H Activity Fold-R [14]: 1.0
- IC50 [15]: 8.9 ± 2.5 µM

Compound: O=S(=O)(c1cc(-c2nc3ccccc3s2)ccc1Cl)N1CCOCC1 [Compound 10]
- IC50 [1]: > 81 µM
- IC50 [2]: > 81 µM

Compound: O=c1c2ccccc2sn1-c1ccc(S(=O)(=O)N2CCCC2)cc1 [Compound 5]
- IC50 [1]: 15.4 ± 9.2 µM
- RNase H Activity IC50 [1]: modest activity
- IC50 [2]: 25 ± 25 µM
- Polymerase Activity IC50 (DNA Polymerase) [2]: modest activity

Compound: Cc1ccc(-c2nc3ccccc3s2)cc1S(=O)(=O)N1CCOCC1 [Compound 9]
- IC50 [1]: > 81 µM
- IC50 [2]: > 81 µM

Compound: O=S(=O)(c1cccc(-c2nc3ccccc3s2)c1)N1CCCC1 [Compound 11]
- IC50 [1]: > 81 µM
- IC50 [2]: 62 ± 38 µM

Compound: O=S(=O)(c1cccc(-c2cn3cc(Cl)ccc3n2)c1)N1CCOCC1 [Compound 7]
- IC50 [1]: > 81 µM
- IC50 [2]: > 81 µM

— publication PMC11274943, “Discovery of Benzisothiazolone Derivatives as Bifunctional Inhibitors of HIV-1 Reverse Transcriptase DNA Polymerase and Ribonuclease H Activities” (Biomolecules, 2024)
